# From ChEMBL document CHEMBL1156401, “A neutrophil multitarget functional bioassay to detect anti-inflammatory natural products” (J Nat Prod, 2002)
# Columns and labels:
# [1] = Antiinflammatory activity against cytochalasin-activated human PMNC assessed as inhibition of platelet activating factor-induced elastase release by p-nitroanilide formation assay; type: functional
# [2] = organism: Homo sapiens; assay: Induction of elastase release in human PMNC assessed as increase in p-nitroanilide formation; type: functional
Structure (SMILES),IC50 [1] [µg/mL],Activity [2]
C[C@@H]1C(=O)O[C@H]2[C@H](O)[C@@]34[C@H]5C[C@@H](C(C)(C)C)[C@]36[C@@H](OC(=O)[C@@H]6O)O[C@@]4(C(=O)O5)[C@@]12O [GINKOLIDE B],72,
C[C@H]1O[C@@H](O[C@H]2[C@@H](O)C[C@H](O[C@H]3[C@@H](O)C[C@H](O[C@H]4CC[C@@]5(C)[C@H](CC[C@@H]6[C@@H]5CC[C@]5(C)[C@@H](C7=CC(=O)OC7)CC[C@]65O)C4)O[C@@H]3C)O[C@@H]2C)C[C@H](O)[C@@H]1O,,Dose-dependent effect
